Results from US20180344199A1, “OPTIMIZED PLACEMENT OF CANNULA FOR DELIVERY OF THERAPEUTICS TO THE BRAIN” (The Regents of the University of California, priority 2010, published 2018).
Values joined by “and” are separate entries in the source; they are usually repeats but may differ in a detail not shown here. Identical values can stand only once.

Tests used:
[1] = CED infusion of GDL or free Gadoteridol into NHP putamen, real-time MRI distribution; format: in vivo, Rhesus macaques and Cynomolgus monkeys
Experimental: Thirteen normal adult NHP, including 11 Rhesus macaques (7 male and 4 female, aged from 8 to 18 years; mean age 11.9 years, weight 4-9.4 kg) and 2 Cynomolgus monkeys (one male and one female, age 7 years for both; weight 5 and 7 kg respectively) were the subjects in the present study. Experimentation was performed according to the National Institutes of Health guidelines and to the protocols approved by the Institutional Animal Care and Use Committee at the University of California San Francisco (San Francisco, Calif.) and at Valley Biosystems (Sacramento, Calif.). Thirteen animals received a total of 25 intracranial infusion of GDL (2 mM) or free Gadoteridol (2 mM, Prohance; Bracco Diagnostics, Princeton, N.J.) into the putamen. Infusions were performed by previously established CED techniques for NHP (Bankiewicz, Eberling et al. 2000). GDL were prepared as previously described (Fiandaca, Varenika et al. 2008) (Krauze, McKnight et al. 2005).
Primates received a baseline MRI before surgery to visualize anatomical landmarks and to generate stereotactic coordinates of the proposed target infusion sites for each animals. NHPs underwent neurosurgical procedures to position the MRI-compatible guide cannula over the putamen. Each customized guide cannula was cut to a specified length, stereotactically guided to its target through a burr-hole created in the skull, and secured to the skull by dental acrylic. The tops of the guide cannula assemblies were capped with stylet screws for simple access during the infusion procedure. Animals recovered for at least 2 weeks before initiation of infusion procedures. Animals were anesthetized with isoflurane (Aerrane; Ohmeda Pharmaceutical Products Division, Liberty Corner, N.J.) during real-time MRI acquisition. Each animal's head was placed in an MRI-compatible stereotactic frame, and a baseline MRI was performed. Vital signs, such as heart rate and PO2, were monitored throughout the procedure.
Briefly, the infusion system consisted of a fused silica reflux-resistant cannula (Fiandaca, Varenika et al. 2008) (Krauze, McKnight et al. 2005) that was connected to a loading line (containing GDL or free Gadoteridol), an infusion line with oil, and another infusion line with trypan blue solution. A 1-ml syringe (filled trypan blue solution) mounted onto a micro-infusion pump (BeeHive, Bioanalytical System, West Lafayette, Ind.), regulated the flow of fluid through the system. Based on MRI coordinates, the cannula was mounted onto a stereotactic holder and manually guided to the targeted region of the brain through the previously placed guide cannula. The length of each infusion cannula was measured to ensure that the distal tip extended 3 mm beyond the length of the respective guide. This created a stepped design at the tip of the cannula to maximize fluid distribution during CED procedures and minimize reflux along the cannula tract. We refer to this transition from fused silica tip to a fused silica sheath as the “step”, and all positioning data is derived from the position of this step because of its unambiguous visibility on MRI.
After securing placement of the infusion cannula, the CED procedures were initiated with real-time MRI data being acquired (real-time convective delivery, RCD). We used the same infusion parameters for every NHP infused throughout the study. Infusion rates were as follows: 0.1 μl/min was applied when lowering cannula to targeted area and increased at 10-min intervals to 0.2, 0.5, 0.8, 1.0, and 2.0 μl/min. Approximately 15 min after infusion, the cannula was withdrawn from the brain. Four animals received multiple infusions. Each animal had at least a 4-week interval between each infusion procedure.
NHPs were sedated with a mixture of ketamine (Ketaset, 7 mg/kg, IM) and xylazine (Rompun, 3 mg/kg, IM). After sedation, each animal was placed in a MRI-compatible stereotactic frame. The ear-bar and eye-bar measurements were recorded, and an intravenous line was established. […]

[2] = CED infusion of gadoteridol into NHP thalamus, real-time MRI distribution; format: in vivo, Cynomolgus monkeys and Rhesus macaques
[3] = CED infusion of gadoteridol into NHP brainstem, real-time MRI distribution; format: in vivo, Cynomolgus monkeys and Rhesus macaques
[4] = CED co-infusion of AAV2 vectors and Gd into NHP thalamus, MRI volume of Gd distribution; details: co-infused with AAV2-GDNF, Vi ~150 μL, n=5, mean±SEM
[5] = 6 cases, good distribution with leakage

SMILES: CC(O)CN1CCN(CC(=O)[O-])CCN(CC(=O)[O-])CCN(CC(=O)[O-])CC1.[Gd+3] (centres unmarked) [Gadoteridol]
- final Vd in WMT, mean volume ([1]; blue zone, 4 cases): 19.4±0.01 mm3
- infusion volume when leakage was first seen, mean ([1]; blue zone, 4 cases): 6.9 ± 0.9 µL
- final Vd in WMT, mean volume ([1]; red zone, 13 cases): 66.8±0.01 mm^3
- infusion volume when leakage was first seen, mean ([1]; red zone, 13 cases): 7.9 ± 1.7 µL
- Vd in the putamen, mean volume ([1]; step in blue zone, 4 cases): 139.6±0.05 mm^3
- Vd in the putamen, mean volume ([1]; step in green zone, 8 cases): 116.4±0.04 mm^3
- Vd (putamen), mean volume ([1]; step in red zone, 13 cases): 62.1±0.01 mm3
- Vd in the thalamus, mean volume [2, 5]: 191.3±38.1 mm^3
- percent of Vd in the thalamus, mean [2, 5]: 89.0%±1.3%
- Vd of leakage, mean volume ([2]; 6 cases, leakage into WMT / lenticular fasciculus): 24.3±7.0 mm^3
- Vd in the thalamus, mean volume ([2]; 8 cases with excellent distribution): 405.6±66.6 mm^3
- percent of Vd in the thalamus vs total Vd in thalamus and WMT ([2]; all 8 cases with excellent distribution): 100%
- maximum distribution ([2]; thalamus, for Vi 158 μl): around 660.3 mm^3
- distribution ratio ([2]; thalamus, maximum distribution at Vi 158 μl): 417.9%
- Vd in the brainstem, mean volume ([3]; 8 infusions): 585.2±75.4 mm^3
- percent of Vd in the brainstem vs total Vd in brainstem and thalamus ([3]; 100% in 7 cases, 95.6% in one case, listed as Gd): 100% and 95.6%
- maximum distribution ([3]; brainstem, for Vi 212 μl): around 695.6 mm^3
- distribution ratio ([3]; brainstem, maximum distribution at Vi 212 μl): 328.1%
- Vd in thalamus (leakage) ([3]; one brainstem case with leakage into thalamus at end of infusion): 30.5 mm^3
- ratio of Vd/Vi, mean [4]: 4.68±0.33
